Test results published in PubChem BioAssay (NCI).
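Where inhibition never reached the appropriate level, the endpoint shown equals the highest concentration tested. Otherwise, values were interpolated linearly from a five-concentration, 48-hour dose response in 96-well plates. TGI denotes the concentration required for complete inhibition of growth.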 Where a SMILES comes first, the peptide text is derived from it. The star is where a group is joined. Boc = CC(C)(C)OC(=O)*

What was measured:
Test in all cases: NCI tumour cell line growth inhibition, 48 h
LOX IMVI melanoma = test system: LOX IMVI melanoma
HOP-92 NSCLC = test system: HOP-92 NSCLC
NCI-H226 lung = test system: NCI-H226 lung
OVCAR-4 ovarian = test system: OVCAR-4 ovarian
KM12 colon = test system: KM12 colon
OVCAR-8 ovarian = test system: OVCAR-8 ovarian
HCT-15 colon = test system: HCT-15 colon
SW-620 colon = test system: SW-620 colon
SN12C renal = test system: SN12C renal

Compound CSc1c(C#N)c(N)n2c1C(=O)N(c1ccccc1)C2=S has a TGI (LOX IMVI melanoma) greater than 100 µM, a TGI (HOP-92 NSCLC) greater than 100 µM and a TGI (NCI-H226 lung) greater than 100 µM. It also gave a TGI (OVCAR-4 ovarian) of 69.7 µM, a TGI (KM12 colon) greater than 100 µM and a TGI (OVCAR-8 ovarian) greater than 100 µM. For the same compound, the TGI (HCT-15 colon) was greater than 100 µM, the TGI (SW-620 colon) was greater than 100 µM and the TGI (SN12C renal) was greater than 100 µM.
COC(=O)c1c2c(cc3c1CC1(C3)Cc3cc4c(c(C(=O)OC)c3C1)CCCC4)CCCC2 showed a TGI (LOX IMVI melanoma) greater than 100 µM, a TGI (HOP-92 NSCLC) greater than 100 µM and a TGI (NCI-H226 lung) greater than 100 µM. The TGI (OVCAR-4 ovarian) was greater than 100 µM, the TGI (KM12 colon) was greater than 100 µM and the TGI (OVCAR-8 ovarian) was greater than 100 µM. It also gave a TGI (HCT-15 colon) greater than 100 µM and a TGI (SN12C renal) greater than 100 µM.
Compound N#CC(C#N)=CNC(=S)c1ccncc1 has a TGI (LOX IMVI melanoma) greater than 100 µM, a TGI (NCI-H226 lung) greater than 100 µM and a TGI (OVCAR-4 ovarian) greater than 100 µM. For the same compound, the TGI (KM12 colon) was greater than 100 µM, the TGI (OVCAR-8 ovarian) was greater than 100 µM and the TGI (HCT-15 colon) was greater than 100 µM. The TGI (SW-620 colon) was greater than 100 µM and the TGI (SN12C renal) was greater than 100 µM.
With Cc1nn(C(=O)Cc2ccccc2)c2c1C(c1ccc(O)cc1)SC(N)=N2 (stereo not drawn) the TGI (LOX IMVI melanoma) was greater than 100 µM, the TGI (NCI-H226 lung) was greater than 100 µM and the TGI (KM12 colon) was greater than 100 µM. For the same compound, the TGI (OVCAR-8 ovarian) was greater than 100 µM, the TGI (HCT-15 colon) was greater than 100 µM and the TGI (SW-620 colon) was greater than 100 µM. It also gave a TGI (SN12C renal) greater than 100 µM.
For C=CC[C@]12C[C@@H](C(=O)OC)N(C(=O)OC)[C@H]1N(S(=O)(=O)c1ccccc1)c1ccccc12, the TGI (HOP-92 NSCLC) was greater than 100 µM, the TGI (NCI-H226 lung) was greater than 100 µM and the TGI (OVCAR-4 ovarian) was greater than 100 µM. The TGI (KM12 colon) was greater than 100 µM, the TGI (OVCAR-8 ovarian) was greater than 100 µM and the TGI (HCT-15 colon) was greater than 100 µM. The TGI (SW-620 colon) was greater than 100 µM and the TGI (SN12C renal) was greater than 100 µM.
Work on C=C[C@@H]1C(CO)=CCC2[C@H]1CCC1C(C)(C)C(=O)CC[C@]21C (stereo partly drawn) yielded a TGI (LOX IMVI melanoma) greater than 100 µM, a TGI (HOP-92 NSCLC) greater than 100 µM and a TGI (NCI-H226 lung) greater than 100 µM. It also gave a TGI (OVCAR-4 ovarian) greater than 100 µM, a TGI (KM12 colon) greater than 100 µM and a TGI (HCT-15 colon) greater than 100 µM. For the same compound, the TGI (SW-620 colon) was greater than 100 µM and the TGI (SN12C renal) was greater than 100 µM.
With Clc1ccc(-c2nn3c(-c4ccncc4)nnc3s2)cc1 the TGI (LOX IMVI melanoma) was greater than 100 µM, the TGI (HOP-92 NSCLC) was greater than 100 µM and the TGI (NCI-H226 lung) was greater than 100 µM. For the same compound, the TGI (OVCAR-4 ovarian) was greater than 100 µM, the TGI (KM12 colon) was greater than 100 µM and the TGI (OVCAR-8 ovarian) was greater than 100 µM. The TGI (HCT-15 colon) was 90.7 µM, the TGI (SW-620 colon) was greater than 100 µM and the TGI (SN12C renal) was greater than 100 µM.
With O=C(CNc1ccccc1Cl)Nn1c(-c2ccccc2)nc2ccccc2c1=O the TGI (LOX IMVI melanoma) was 29.5 µM, the TGI (HOP-92 NSCLC) was 29.4 µM and the TGI (NCI-H226 lung) was 81.1 µM. It also gave a TGI (OVCAR-4 ovarian) of 93.4 µM, a TGI (KM12 colon) of 87.1 µM and a TGI (OVCAR-8 ovarian) greater than 100 µM. For the same compound, the TGI (SW-620 colon) was 39.7 µM and the TGI (SN12C renal) was greater than 100 µM.
O=c1c2ccccc2nc2[nH][nH]c(=S)n12 showed a TGI (LOX IMVI melanoma) greater than 100 µM, a TGI (HOP-92 NSCLC) greater than 100 µM and a TGI (NCI-H226 lung) greater than 100 µM. For the same compound, the TGI (KM12 colon) was greater than 100 µM, the TGI (OVCAR-8 ovarian) was greater than 100 µM and the TGI (HCT-15 colon) was greater than 100 µM. For the same compound, the TGI (SW-620 colon) was greater than 100 µM and the TGI (SN12C renal) was greater than 100 µM.
O=C1c2cc3c(cc2CC1Br)CCC3 (stereo not drawn) gave a TGI (LOX IMVI melanoma) of 2 µM, a TGI (NCI-H226 lung) of 11.4 µM and a TGI (OVCAR-4 ovarian) of 3.86 µM. For the same compound, the TGI (KM12 colon) was 22.1 µM, the TGI (OVCAR-8 ovarian) was 4.04 µM and the TGI (HCT-15 colon) was 4.82 µM. It also gave a TGI (SW-620 colon) of 3 µM and a TGI (SN12C renal) of 3.22 µM.
O=C(c1cc2ccccc2cc1O)N1CCCCC1 showed a TGI (LOX IMVI melanoma) greater than 100 µM, a TGI (HOP-92 NSCLC) of 43.3 µM and a TGI (NCI-H226 lung) of 85.9 µM. The TGI (OVCAR-4 ovarian) was greater than 100 µM, the TGI (KM12 colon) was greater than 100 µM and the TGI (OVCAR-8 ovarian) was greater than 100 µM. For the same compound, the TGI (HCT-15 colon) was greater than 100 µM and the TGI (SW-620 colon) was greater than 100 µM.
Compound O=C(CCCN1CCC2(CC1)CC(=O)N(N1CCOCC1)C2=O)c1ccccc1 has a TGI (LOX IMVI melanoma) greater than 100 µM, a TGI (NCI-H226 lung) greater than 100 µM and a TGI (KM12 colon) greater than 100 µM. For the same compound, the TGI (OVCAR-8 ovarian) was greater than 100 µM, the TGI (HCT-15 colon) was greater than 100 µM and the TGI (SW-620 colon) was greater than 100 µM. It also gave a TGI (SN12C renal) greater than 100 µM.
In the case of O=C(/C=C/c1ccsc1)c1ccsc1, the TGI (LOX IMVI melanoma) was 35.2 µM, the TGI (NCI-H226 lung) was 39 µM and the TGI (OVCAR-4 ovarian) was greater than 100 µM. For the same compound, the TGI (KM12 colon) was 37.7 µM, the TGI (OVCAR-8 ovarian) was 85.6 µM and the TGI (HCT-15 colon) was 41.5 µM. It also gave a TGI (SW-620 colon) of 60.1 µM and a TGI (SN12C renal) of 40.4 µM.
For C=CCOC(=O)CC[N+]1=CCC(c2ccccc2)(c2ccccc2)O1, the TGI (HOP-92 NSCLC) was greater than 100 µM, the TGI (NCI-H226 lung) was greater than 100 µM and the TGI (OVCAR-4 ovarian) was greater than 100 µM. It also gave a TGI (KM12 colon) greater than 100 µM, a TGI (OVCAR-8 ovarian) greater than 100 µM and a TGI (HCT-15 colon) greater than 100 µM. For the same compound, the TGI (SW-620 colon) was greater than 100 µM and the TGI (SN12C renal) was greater than 100 µM.
Compound CCCNC(=O)CCC(C)[C@H]1CCC2C3C(C[C@H](OC(C)=O)[C@@]21C)[C@@]1(C)CCC2(C[C@H]1C[C@H]3OC(C)=O)OOC1(CCC(C)CC1)OO2 (stereo partly drawn) has a TGI (HOP-92 NSCLC) of 1.98 µM, a TGI (NCI-H226 lung) greater than 100 µM and a TGI (OVCAR-4 ovarian) of 33.9 µM. It also gave a TGI (KM12 colon) of 20.2 µM, a TGI (OVCAR-8 ovarian) of 48.3 µM and a TGI (HCT-15 colon) greater than 100 µM. It also gave a TGI (SN12C renal) greater than 100 µM.
With CC(C)(C)OC(=O)NCC(=O)NCC(=O)NCC(=O)NCC(=O)O (Boc-GGGG-OH) the TGI (LOX IMVI melanoma) was greater than 100 µM, the TGI (HOP-92 NSCLC) was greater than 100 µM and the TGI (OVCAR-4 ovarian) was greater than 100 µM. It also gave a TGI (KM12 colon) greater than 100 µM, a TGI (OVCAR-8 ovarian) greater than 100 µM and a TGI (HCT-15 colon) greater than 100 µM. The TGI (SW-620 colon) was greater than 100 µM and the TGI (SN12C renal) was greater than 100 µM.
For O=C(N=Nc1cc(Cl)ccc1Cl)NNc1cc(Cl)ccc1Cl, the TGI (HOP-92 NSCLC) was 32.9 µM, the TGI (KM12 colon) was 33.9 µM and the TGI (OVCAR-8 ovarian) was greater than 100 µM. The TGI (HCT-15 colon) was 64.4 µM and the TGI (SN12C renal) was 52.5 µM.
Cc1ccccc1C(O)(c1nccn1C)c1nccn1C was tested, and the TGI (HOP-92 NSCLC) was greater than 100 µM, the TGI (NCI-H226 lung) was greater than 100 µM and the TGI (OVCAR-4 ovarian) was greater than 100 µM. It also gave a TGI (KM12 colon) greater than 100 µM, a TGI (OVCAR-8 ovarian) greater than 100 µM and a TGI (HCT-15 colon) greater than 100 µM. For the same compound, the TGI (SW-620 colon) was greater than 100 µM and the TGI (SN12C renal) was greater than 100 µM.
CN(C)Cc1cc(C(=O)/C=C/c2ccc(O)cc2)cc(CN(C)C)c1O was tested, and the TGI (LOX IMVI melanoma) was greater than 100 µM, the TGI (HOP-92 NSCLC) was greater than 100 µM and the TGI (NCI-H226 lung) was greater than 100 µM. The TGI (KM12 colon) was greater than 100 µM, the TGI (OVCAR-8 ovarian) was greater than 100 µM and the TGI (HCT-15 colon) was greater than 100 µM. It also gave a TGI (SW-620 colon) greater than 100 µM and a TGI (SN12C renal) of 60.1 µM.
